Data as given in ChEMBL document CHEMBL3044631, “Synthesis of 2-[4,5-dimethyl-1-(phenylamino)-1H-imidazol-2-ylthio]-N-(thiazole-2-yl)acetamide derivatives and their anticancer activities” (2013).

Tests used:
Format in all cases: functional
M14 = experiment: Anticancer activity against Homo sapiens (human) M14 cells assessed as cell growth promotion at 10 uM after 48 hr by SRB assay
HOP-92 = experiment: Anticancer activity against Homo sapiens (human) HOP92 cells assessed as cell growth promotion at 10 uM after 48 hr by SRB assay
MCF7 = experiment: Anticancer activity against Homo sapiens (human) MCF7 cells assessed as cell growth promotion at 10 uM after 48 hr by SRB assay
SF-295 = experiment: Anticancer activity against Homo sapiens (human) SF295 cells assessed as cell growth promotion at 10 uM after 48 hr by SRB assay
UO-31 = experiment: Anticancer activity against Homo sapiens (human) UO31 cells assessed as cell growth promotion at 10 uM after 48 hr by SRB assay
COLO 205 = experiment: Anticancer activity against Homo sapiens (human) COLO205 cells assessed as cell growth promotion at 10 uM after 48 hr by SRB assay
K562 = experiment: Anticancer activity against Homo sapiens (human) K562 cells assessed as cell growth promotion at 10 uM after 48 hr by SRB assay
SK-OV-3 = experiment: Anticancer activity against Homo sapiens (human) SKOV3 cells assessed as cell growth promotion at 10 uM after 48 hr by SRB assay
HCC 2998 = experiment: Anticancer activity against Homo sapiens (human) HCC2998 cells assessed as cell growth promotion at 10 uM after 48 hr by SRB assay
OVCAR-5 = experiment: Anticancer activity against Homo sapiens (human) OVCAR5 cells assessed as cell growth promotion at 10 uM after 48 hr by SRB assay
NCI-H322M = experiment: Anticancer activity against Homo sapiens (human) NCI-H322M cells assessed as cell growth promotion at 10 uM after 48 hr by SRB assay
NCI-H226 = experiment: Anticancer activity against Homo sapiens (human) NCI-H226 cells assessed as cell growth promotion at 10 uM after 48 hr by SRB assay
Malme-3M = experiment: Anticancer activity against Homo sapiens (human) MALME-3M cells assessed as cell growth promotion at 10 uM after 48 hr by SRB assay
HL-60(TB) = experiment: Anticancer activity against Homo sapiens (human) HL-60(TB) cells assessed as cell growth promotion at 10 uM after 48 hr by SRB assay
UACC-257 = experiment: Anticancer activity against Homo sapiens (human) UACC257 cells assessed as cell growth promotion at 10 uM after 48 hr by SRB assay
PC-3 = experiment: Anticancer activity against Homo sapiens (human) PC3 cells assessed as cell growth promotion at 10 uM after 48 hr by SRB assay
MOLT-4 = experiment: Anticancer activity against Homo sapiens (human) MOLT4 cells assessed as cell growth promotion at 10 uM after 48 hr by SRB assay
OVCAR-4 = experiment: Anticancer activity against Homo sapiens (human) OVCAR4 cells assessed as cell growth promotion at 10 uM after 48 hr by SRB assay
TK-10 = experiment: Anticancer activity against Homo sapiens (human) TK10 cells assessed as cell growth promotion at 10 uM after 48 hr by SRB assay
HT-29 = experiment: Anticancer activity against Homo sapiens (human) HT-29 cells assessed as cell growth promotion at 10 uM after 48 hr by SRB assay
SK-MEL-2 = experiment: Anticancer activity against Homo sapiens (human) SK-MEL-2 cells assessed as cell growth promotion at 10 uM after 48 hr by SRB assay
HOP-62 = experiment: Anticancer activity against Homo sapiens (human) HOP62 cells assessed as cell growth promotion at 10 uM after 48 hr by SRB assay
ACHN = experiment: Anticancer activity against Homo sapiens (human) ACHN cells assessed as cell growth promotion at 10 uM after 48 hr by SRB assay
SW-620 = experiment: Anticancer activity against Homo sapiens (human) SW620 cells assessed as cell growth promotion at 10 uM after 48 hr by SRB assay
SF-539 = experiment: Anticancer activity against Homo sapiens (human) SF539 cells assessed as cell growth promotion at 10 uM after 48 hr by SRB assay
MDA-MB-435 = experiment: Anticancer activity against Homo sapiens (human) MDA-MB-435 cells assessed as cell growth promotion at 10 uM after 48 hr by SRB assay
LOX IMVI = experiment: Anticancer activity against Homo sapiens (human) LOXIMVI cells assessed as cell growth promotion at 10 uM after 48 hr by SRB assay
Hs-578T = experiment: Anticancer activity against Homo sapiens (human) Hs 578T cells assessed as cell growth promotion at 10 uM after 48 hr by SRB assay
SNB-75 = experiment: Anticancer activity against Homo sapiens (human) SNB75 cells assessed as cell growth promotion at 10 uM after 48 hr by SRB assay
T47D = experiment: Anticancer activity against Homo sapiens (human) T47D cells assessed as cell growth promotion at 10 uM after 48 hr by SRB assay
SR = experiment: Anticancer activity against Homo sapiens (human) SR cells assessed as cell growth promotion at 10 uM after 48 hr by SRB assay
MDA-MB-468 = experiment: Anticancer activity against Homo sapiens (human) MDA-MB-468 cells assessed as cell growth promotion at 10 uM after 48 hr by SRB assay
DU-145 = experiment: Anticancer activity against Homo sapiens (human) DU145 cells assessed as cell growth promotion at 10 uM after 48 hr by SRB assay
SNB-19 = experiment: Anticancer activity against Homo sapiens (human) SNB19 cells assessed as cell growth promotion at 10 uM after 48 hr by SRB assay
NCI/ADR-RES = experiment: Anticancer activity against Homo sapiens (human) NCI/ADR-RES cells assessed as cell growth promotion at 10 uM after 48 hr by SRB assay
MDA-MB-231 = experiment: Anticancer activity against Homo sapiens (human) MDA-MB-231/ATCC cells assessed as cell growth promotion at 10 uM after 48 hr by SRB assay
RXF 393 = experiment: Anticancer activity against Homo sapiens (human) RXF393 cells assessed as cell growth promotion at 10 uM after 48 hr by SRB assay
IGROV-1 = experiment: Anticancer activity against Homo sapiens (human) IGROV1 cells assessed as cell growth promotion at 10 uM after 48 hr by SRB assay
NCI-H522 = experiment: Anticancer activity against Homo sapiens (human) NCI-H522 cells assessed as cell growth promotion at 10 uM after 48 hr by SRB assay
BT-549 = experiment: Anticancer activity against Homo sapiens (human) BT549 cells assessed as cell growth promotion at 10 uM after 48 hr by SRB assay

Structure (SMILES): Cc1nc(SCC(=O)Nc2nccs2)n(Nc2ccc(Cl)cc2)c1C
- Activity (M14): 97.83%
- Activity (HOP-92): 96.74%
- Activity (MCF7): 104.33%
- Activity (SF-295): 97.66%
- Activity (UO-31): 86.43%
- Activity (COLO 205): 121.19%
- Activity (K562): 112.86%
- Activity (SK-OV-3): 102.45%
- Activity (HCC 2998): 115.62%
- Activity (OVCAR-5): 87.36%
- Activity (NCI-H322M): 131.8%
- Activity (NCI-H226): 93.51%
- Activity (Malme-3M): 140.83%
- Activity (HL-60(TB)): 95.84%
- Activity (UACC-257): 107.66%
- Activity (PC-3): 103.63%
- Activity (MOLT-4): 117.57%
- Activity (OVCAR-4): 102.19%
- Activity (TK-10): 120.55%
- Activity (HT-29): 108.32%
- Activity (SK-MEL-2): 116.11%
- Activity (HOP-62): 88.3%
- Activity (ACHN): 104.69%
- Activity (SW-620): 123.41%
- Activity (SF-539): 90.1%
- Activity (MDA-MB-435): 110.71%
- Activity (LOX IMVI): 101.8%
- Activity (Hs-578T): 121.05%
- Activity (SNB-75): 92.05%
- Activity (T47D): 91.74%
- Activity (SR): 120.95%
- Activity (MDA-MB-468): 105.66%
- Activity (DU-145): 122.72%
- Activity (SNB-19): 121.25%
- Activity (NCI/ADR-RES): 100.18%
- Activity (MDA-MB-231): 98.69%
- Activity (RXF 393): 91.41%
- Activity (IGROV-1): 126.1%
- Activity (NCI-H522): 111.97%
- Activity (BT-549): 111.12%

Structure (SMILES): Cc1nc(SCC(=O)Nc2nc(-c3ccc(Cl)cc3)cs2)n(Nc2ccccc2)c1C
- Activity (M14): 47.55%
- Activity (MCF7): 27.14%
- Activity (SF-295): 31.02%
- Activity (UO-31): 32.86%
- Activity (COLO 205): 65.21%
- Activity (K562): 27.56%
- Activity (SK-OV-3): 68.56%
- Activity (HCC 2998): 69.51%
- Activity (OVCAR-5): 65.75%
- Activity (NCI-H322M): 70.81%
- Activity (NCI-H226): 59.84%
- Activity (Malme-3M): 99.3%
- Activity (HL-60(TB)): 42.07%
- Activity (UACC-257): 46.91%
- Activity (PC-3): 59.13%
- Activity (MOLT-4): 41.02%
- Activity (OVCAR-4): 35.93%
- Activity (TK-10): 56.83%
- Activity (HT-29): 25.29%
- Activity (SK-MEL-2): 84.99%
- Activity (HOP-62): 48.49%
- Activity (ACHN): 49.37%
- Activity (SW-620): 73.1%
- Activity (SF-539): 35.42%
- Activity (MDA-MB-435): 41%
- Activity (LOX IMVI): 26.08%
- Activity (Hs-578T): 70.58%
- Activity (SNB-75): 39.12%
- Activity (T47D): 26.64%
- Activity (SR): 12.66%
- Activity (MDA-MB-468): 21.05%
- Activity (DU-145): 65.41%
- Activity (SNB-19): 59.64%
- Activity (NCI/ADR-RES): 20.41%
- Activity (MDA-MB-231): 48.83%
- Activity (RXF 393): 72.14%
- Activity (IGROV-1): 68.44%
- Activity (NCI-H522): 47.28%
- Activity (BT-549): 54%

Structure (SMILES): COc1ccc(Nn2c(SCC(=O)Nc3nc(-c4ccc(Cl)cc4)cs3)nc(C)c2C)cc1
- Activity (M14): 62.46%
- Activity (HOP-92): 38.65%
- Activity (MCF7): 16.16%
- Activity (SF-295): 43.89%
- Activity (UO-31): 39.41%
- Activity (COLO 205): 79.56%
- Activity (K562): 26.88%
- Activity (SK-OV-3): 81.45%
- Activity (HCC 2998): 54.24%
- Activity (OVCAR-5): 111.33%
- Activity (NCI-H322M): 111.9%
- Activity (NCI-H226): 60.46%
- Activity (Malme-3M): 99.15%
- Activity (UACC-257): 48.91%
- Activity (PC-3): 35.69%
- Activity (MOLT-4): 36.1%
- Activity (OVCAR-4): 30.81%
- Activity (TK-10): 68.5%
- Activity (HT-29): 30.12%
- Activity (SK-MEL-2): 90.48%
- Activity (HOP-62): 100.44%
- Activity (ACHN): 52.04%
- Activity (SW-620): 75.2%
- Activity (SF-539): 79.14%
- Activity (MDA-MB-435): 50.36%
- Activity (LOX IMVI): 38.91%
- Activity (Hs-578T): 86.14%
- Activity (SNB-75): 56.63%
- Activity (T47D): 39.43%
- Activity (SR): 40.3%
- Activity (MDA-MB-468): 26.17%
- Activity (DU-145): 79.62%
- Activity (SNB-19): 79.24%
- Activity (NCI/ADR-RES): 23.11%
- Activity (MDA-MB-231): 79.71%
- Activity (IGROV-1): 70.85%
- Activity (NCI-H522): 66.22%
- Activity (BT-549): 53.32%
